Molecules are shown by their SMILES.

The values that follow come from patent US10329309B2, “3-(3H-imidazo[4,5-B]pyridin-2-yl)-1H-pyrazolo[4,3-B]pyridines and therapeutic uses thereof” (Samumed, LLC, priority 2015, dated 2019).

Format in all cases: cell-based
Assay [1] concerns primary human fibroblasts derived from IPF patients (LL29 cells), α-smooth muscle actin (αSMA). The experiment in a line: Inhibition of the fibrotic process: TGF-β1-treated primary human fibroblasts from IPF patients, αSMA staining. The settings on record: Fibroblast, 96 h, LL29 fibroblasts from IPF patients, TGF-β1 20 ng/mL, 4 days, inhibition of fibrotic process. The text has this:
Representative compounds were screened using primary human fibroblasts (derived from IPF patients) treated with TGF-β1 to determine their ability to inhibit the fibrotic process.
Primary human fibroblasts derived from IPF patients (LL29 cells) [^1Xiaoqiu Liu, et. al., “Fibrotic Lung Fibroblasts Show Blunted Inhibition by cAMP Due to Deficient cAMP Response Element-Binding Protein Phosphorylation”, Journal of Pharmacology and Experimental Therapeutics (2005), 315(2), 678-687; ^2Watts, K. L., et. al., “RhoA signaling modulates cyclin D1 expression in human lung fibroblasts; implications for idiopathic pulmonary fibrosis”, Respiratory Research (2006), 7(1), 88] were obtained from American Type Culture Collection (ATCC) and expanded in F12 medium supplemented with 15% Fetal Bovine Serum and Penicillin/Streptomycin.
Each compound was dissolved in DMSO as a 10 mM stock and used to prepare compound source plates. Serial dilution (1:2, 11-point dose-response curves from 10 μM to 1.87 nM) and compound transfer was performed using the ECHO 550 (Labcyte, Sunnyvale, Calif.) into 384-well clear bottom assay plates (Greiner Bio-One) with appropriate DMSO backfill for a final DMSO concentration of 0.1%. LL29 cells are plated at 1,500 cells/well in 80 μL/well F12 medium supplemented with 1% Fetal Bovine Serum. One hour after addition of the cells, TGF-β1 (Peprotech; 20 ng/mL) was added to the plates to induce fibrosis (ref. 1 and 2 above). Wells treated with TGF-β1 and containing DMSO were used as controls. Cells were incubated at 37° C. and 5% CO2 for 4 days. Following incubation for 4 days, SYTOX green nucleic acid stain (Life Technologies [Thermo Fisher Scientific]) was added to the wells at a final concentration of 1 μM and incubated at room temperature for 30 min. Cells were then fixed using 4% formaldehyde (Electron Microscopy Sciences), washed 3 times with PBS followed by blocking and permeabilization using 3% Bovine Serum Albumin (BSA; Sigma) and 0.3% Triton X-100 (Sigma) in PBS. Cells were then stained with antibody specific to α-smooth muscle actin (αSMA; Abcam) (ref. 1 and 2 above) in 3% Bovine Serum Albumin (BSA; Sigma) and 0.3% Triton X-100 (Sigma) in PBS, and incubated overnight at 4° C. Cells were then washed 3 times with PBS, followed by incubation with Alexa Flor-647 conjugated secondary antibody (Life Technologies [Thermo Fisher Scientific]) and DAPI at room temperature for 1 hour. Cells were then washed 3 times with PBS and plates were sealed for imaging. αSMA staining was imaged by excitation at 630 nm and emission at 665 nm and quantified using the Compartmental Analysis program on the CellInsight CX5 (Thermo Scientific). Dead or apoptotic cells were excluded from analysis based on positive SYTOX green staining. % of total cells positive for αSMA were counted in each well and normalized to the average of 11 wells treated with TGF-β1 on the same plate using Dotmatics' Studies Software. The normalized averages (fold change over untreated) of 3 replicate wells for each compound concentration were used to create dose-responses curves and EC50 values were calculated using non-linear regression curve fit in the Dotmatics' Studies Software. For EC50 of >10 μM, the percent inhibition at 10 μM is provided.

Assay [2] relates to SW480 colon cancer cells. The assay is described as follows: Cell viability assay (CellTiter-Blue), four days. The following applies: Homo sapiens, 96 h, CellTiter-Blue cell viability. As for the experimental part: Representative compounds were screened using the following assay procedure to assess the effect on cell viability as described below.
Each compound was dissolved in DMSO as a 10 mM stock and used to prepare compound source plates. Serial dilution (1:3, 8-point dose-response curves from 10 μM to 0.0045 μM) and compound transfer was performed using the ECHO 550 (Labcyte, Sunnyvale, Calif.) into 96-well clear bottom, black-walled plates (Corning-Costar).
Approximately 2×10^3 SW480 colon cancer cells were seeded into each well and allowed to incubate in the presence or absence of compound for four days at 37° C./5% CO2. Eight replicates of DMSO-treated cells served as controls and cells treated with compound were performed in duplicate.
After incubation, 20 μL of CellTiter-Blue (Promega) was added to each well allowed to incubate for approximately 3 hours. This reagent was a buffered solution which contains resazurin, metabolically active cells were able to reduce rezarurin (blue) into resorufin (pink) which was highly fluorescent. This measured fluorescence was used as a readout for cell viability.
After incubation, the plates were read at Ex 560 nm Em 590 nm (Cytation 3, BioTek). Dose-response curves were generated and EC50 concentration values were calculated using non-linear regression curve fit in the GraphPad Prism (San Diego, Calif.) or Dotmatics' Studies Software (Bishops Stortford, UK). For EC50 of >10 μM, the percent inhibition at 10 μM is provided.
(In general: Resazurin is reduced to fluorescent resorufin, in cell work by metabolically active cells.)

In assay [3] the test system is IL-6 (THP-1 cells). The experiment in a line: Inhibition of IL-6 in LPS-stimulated THP-1 monocytes (HTRF). The settings on record: Homo sapiens, LPS 500 ng/mL, IL-6 by HTRF. The procedure:
Human monocyte cell line (THP-1 cells; Catalog # TIB-202, ATCC, Manassas, Va.) were cultured in Roswell Park Memorial Institute (RPMI) 1640 Medium (Catalog #21870-100, Buffalo, N.Y.) with 1% L-glutamine, 1% HEPES, 1% Sodium Pyruvate, 2% Sodium Bicarbonate supplemented with 100 units/mL penicillin, 50 μg/mL streptomycin, 2-mercaptoethanol (0.05 mM) [basal medium] and 10% fetal bovine serum (Catalog #16140089, Life Technologies, Carlsbad, Calif.) at 37° C. and 5% CO2.
THP-1 cells were cultured in basal media with 1% FBS for 24 hours before the start of the assay. Each compound was dissolved in DMSO as a 10 mM stock and used to prepare compound source plates. Serial dilution (1:3, 10-point dose-response curves starting from 10 μM) and compound transfer was performed using the ECHO 550 (Labcyte, Sunnyvale, Calif.) into 384-well white low volume assay plates (Greiner Bio-One) with appropriate DMSO backfill for a final DMSO concentration of 0.1%. THP-1 cells were plated at 5000 cells/well in the 384-well plates and incubated at 37° C. for 2 h. 500 ng/mL of LPS was added after 2 hours and cells were incubated for another 22 hours at 37° C. Plates were spun in a centrifuge for 1 minute at […] and a mixture of anti-IL6 XL665, and anti-IL6 Cryptate diluted in reconstitution buffer (Cisbio Inc.) was added to each well. Following incubation for 3 hrs at room temperature, Homogeneous Time-Resolved Fluorescence (HTRF) was measured using the Envision (Perkin Elmer) at 665 nm and […]. The ratio of fluorescence at 665 nm to 620 nm was used as a readout for IL6 quantification. All samples were processed in duplicate. Readings were normalized to DMSO treated cells and normalized activities were utilized for EC50 calculations using the dose-response log (inhibitor) vs. response -variable slope (four parameters) nonlinear regression feature available in GraphPad Prism 5.0 (or Dotmatics). For EC50 of >10 μM, the percent inhibition at 10 μM is provided.

Assay [4] has as its system Wnt activity (Sp5-Luc reporter, SW480 colon carcinoma cells). The assay is described as follows: Screening assay for Wnt activity: Sp5-Luc reporter gene assay in SW480 cells. The settings on record: Homo sapiens, overnight incubation, 10-point dose-response from 10 μM. The text has this: The screening assay for Wnt activity is described as follows. Reporter cell lines can be generated by stably transducing cancer cell lines (e.g., colon cancer) or primary cells (e.g., IEC-6 intestinal cells) with a lentiviral construct that includes a Wnt-responsive promoter driving expression of the firefly luciferase gene.
SW480 colon carcinoma cells were transduced with a lentiviral vector expressing luciferase with a human Sp5 promoter consisting of a sequence of eight TCF/LEF binding sites. SW480 cells stably expressing the Sp5-Luc reporter gene and a hygromycin resistance gene were selected by treatment with 150 μg/mL of hygromycin for 7 days. These stably transduced SW480 cells were expanded in cell culture and used for all further screening activities. Each compound was dissolved in DMSO as a 10 mM stock and used to prepare compound source plates. Serial dilution (1:3, 10-point dose-response curves starting from 10 μM) and compound transfer was performed using the ECHO 550 (Labcyte, Sunnyvale, Calif.) into 384-well white solid bottom assay plates (Greiner Bio-One) with appropriate DMSO backfill for a final DMSO concentration of 0.1%. For Sp5-Luc reporter gene assays, the cells were plated at 4,000 cells/well in 384-well plates with medium containing 1% fetal bovine serum and incubated overnight at 37° C. and 5% CO2. Following incubation, 20 μl of BrightGlo luminescence reagent (Promega) was added to each well of the 384-well assay plates. The plates were placed on an orbital shaker for 2 min and then luminescence was quantified using the Envision (Perkin Elmer) plate reader. Readings were normalized to DMSO only treated cells, and normalized activities were utilized for EC50 calculations using the dose-response log (inhibitor) vs. response -variable slope (four parameters) nonlinear regression feature available in GraphPad Prism 5.0 (or Dotmatics). For EC50 of >10 μM, the percent inhibition at 10 μM is provided.

With `Fc1ccccc1-c1ccnc2[nH]c(-c3n[nH]c4ccc(-c5cncc(CNCC6CCCC6)c5)nc34)nc12` [Compound 81, 1-Cyclopentyl-N-((5-(3-(7-(2-fluorophenyl)-3H-imidazo[4,5-b]pyridin-2-yl)-1H-pyrazolo[4,3-b]pyridin-5-yl)pyridin-3-yl)methyl)methanamine], the EC50 in assay [1] amounted to 1.6 µM; in assay [2] it was 2.64 µM; in assay [3] it was 5.75 µM; in assay [4], 1.12 µM.
For the compound `c1ccc(CNCc2cncc(-c3ccc4[nH]nc(-c5nc6c(-c7cccnc7)ccnc6[nH]5)c4n3)c2)cc1` [Compound 108, N-Benzyl-1-(5-(3-(7-(pyridin-3-yl)-3H-imidazo[4,5-b]pyridin-2-yl)-1H-pyrazolo[4,3-b]pyridin-5-yl)pyridin-3-yl)methanamine], the EC50 was 8.89 µM in assay [1], 3.32 µM in assay [2], 0.131 µM in assay [3] and 4.86 µM in assay [4].
For `FC1(F)CCN(Cc2cncc(-c3ccc4[nH]nc(-c5nc6c(N7CCCCC7)ccnc6[nH]5)c4n3)c2)C1` [Compound 194, 5-(5-((3,3-Difluoropyrrolidin-1-yl)methyl)pyridin-3-yl)-3-(7-(piperidin-1-yl)-3H-imidazo[4,5-b]pyridin-2-yl)-1H-pyrazolo[4,3-b]pyridine], the EC50 in assay [1] came out at 1.19 µM; in assay [2], 0.832 µM; in assay [3], 5.42 µM; in assay [4], 4.13 µM.
In the case of `c1ccc(-c2ccc3[nH]nc(-c4nc5cccnc5[nH]4)c3n2)nc1` [Compound 280, 3-(3H-Imidazo[4,5-b]pyridin-2-yl)-5-(pyridin-2-yl)-1H-pyrazolo[4,3-b]pyridine], the EC50 in assay [1] was 3.88 µM; in assay [2], 2.29 µM; in assay [3], 0.115 µM; in assay [4], 0.687 µM.
With `c1ccc(CNCc2cncc(-c3ccc4[nH]nc(-c5nc6c(-c7ccsc7)ccnc6[nH]5)c4n3)c2)cc1` [Compound 304, N-Benzyl-1-(5-(3-(7-(thiophen-3-yl)-3H-imidazo[4,5-b]pyridin-2-yl)-1H-pyrazolo[4,3-b]pyridin-5-yl)pyridin-3-yl)methanamine], the half-maximal effective concentration (EC50) in assay [1] came to 1.34 µM; in assay [2], 1.4 µM; in assay [3], 4.26 µM; in assay [4] it was 1.97 µM.
Take `c1cc(-c2ccoc2)c2nc(-c3n[nH]c4ccc(-c5cncc(CNCC6CCCC6)c5)nc34)[nH]c2n1` [Compound 333, 1-Cyclopentyl-N-((5-(3-(7-(furan-3-yl)-3H-imidazo[4,5-b]pyridin-2-yl)-1H-pyrazolo[4,3-b]pyridin-5-yl)pyridin-3-yl)methyl)methanamine]: the EC50 in assay [1] came out at 1.42 µM; in assay [2] it was 2.59 µM; in assay [3] it was 2.62 µM; in assay [4], 2.72 µM.
On to `c1csc(-c2ccnc3[nH]c(-c4n[nH]c5ccc(-c6ccncc6)nc45)nc23)c1` [Compound 354, 5-(Pyridin-4-yl)-3-(7-(thiophen-2-yl)-3H-imidazo[4,5-b]pyridin-2-yl)-1H-pyrazolo[4,3-b]pyridine], for which the EC50 in assay [1] stood at 0.387 µM; in assay [2], 0.405 µM; in assay [3], 1.39 µM; in assay [4], 0.731 µM.
For the compound `CN(C)CCNc1cc(F)cc(-c2ccnc3[nH]c(-c4n[nH]c5ccc(-c6cncc(CNCC7CCCC7)c6)nc45)nc23)c1` [Compound 473, N^1-(3-(2-(5-(5-(((Cyclopentylmethyl)amino)methyl)pyridin-3-yl)-1H-pyrazolo[4,3-b]pyridin-3-yl)-3H-imidazo[4,5-b]pyridin-7-yl)-5-fluorophenyl)-N^2,N^2-dimethylethane-1,2-diamin], the EC50 is 1.53 µM in assay [1], 2.83 µM in assay [2], 2.62 µM in assay [3] and 3.64 µM in assay [4].
`Oc1cncc(-c2ccc3[nH]nc(-c4nc5c(N6CCCCC6)ccnc5[nH]4)c3n2)c1` [Compound 613, 5-(3-(7-(Piperidin-1-yl)-3H-imidazo[4,5-b]pyridin-2-yl)-1H-pyrazolo[4,3-b]pyridin-5-yl)pyridin-3-ol]: the EC50 in assay [1] was determined as 2.44 µM; in assay [2], 3.56 µM; in assay [3] it was 9.18 µM; in assay [4], 3.29 µM.

For orientation: EC50 means the concentration needed to bring the measured effect to its halfway point. Lower therefore signals higher potency in that assay.
